Experimental data published in ChEMBL document CHEMBL5329194, “Design, Synthesis, and Evaluation of 18F-Labeling CYP1B1 PET Tracer Based on 2-Phenylquinazolin” (Bioorg Med Chem Lett, 2023).

Key:
Assay type in all cases: ADME
Cytochrome P450 1B1 = target: T1, Cytochrome P450 1B1 (Homo sapiens, UniProt Q16678); test: Inhibition of CYP1B1 (unknown origin) by EROD assay
T1 sequence (Q16678 whole entry): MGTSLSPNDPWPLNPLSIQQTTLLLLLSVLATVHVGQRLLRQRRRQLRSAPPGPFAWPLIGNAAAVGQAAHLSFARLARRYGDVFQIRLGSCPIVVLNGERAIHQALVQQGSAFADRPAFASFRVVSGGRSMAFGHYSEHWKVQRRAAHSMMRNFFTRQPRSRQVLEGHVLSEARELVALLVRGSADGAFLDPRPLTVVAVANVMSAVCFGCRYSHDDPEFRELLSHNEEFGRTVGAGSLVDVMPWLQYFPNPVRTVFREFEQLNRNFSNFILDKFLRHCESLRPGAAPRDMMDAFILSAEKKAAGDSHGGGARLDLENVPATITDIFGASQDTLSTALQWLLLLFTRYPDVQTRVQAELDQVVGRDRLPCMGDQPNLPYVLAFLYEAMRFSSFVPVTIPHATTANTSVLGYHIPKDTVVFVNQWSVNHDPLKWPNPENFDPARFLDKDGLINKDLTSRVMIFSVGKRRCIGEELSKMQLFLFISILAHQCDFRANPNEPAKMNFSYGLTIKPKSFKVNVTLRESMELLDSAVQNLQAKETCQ

Cytochrome P450 1A1 = target: T2, Cytochrome P450 1A1 (Homo sapiens, UniProt P04798); test: Inhibition of CYP1A1 (unknown origin)
T2 sequence (P04798 whole entry): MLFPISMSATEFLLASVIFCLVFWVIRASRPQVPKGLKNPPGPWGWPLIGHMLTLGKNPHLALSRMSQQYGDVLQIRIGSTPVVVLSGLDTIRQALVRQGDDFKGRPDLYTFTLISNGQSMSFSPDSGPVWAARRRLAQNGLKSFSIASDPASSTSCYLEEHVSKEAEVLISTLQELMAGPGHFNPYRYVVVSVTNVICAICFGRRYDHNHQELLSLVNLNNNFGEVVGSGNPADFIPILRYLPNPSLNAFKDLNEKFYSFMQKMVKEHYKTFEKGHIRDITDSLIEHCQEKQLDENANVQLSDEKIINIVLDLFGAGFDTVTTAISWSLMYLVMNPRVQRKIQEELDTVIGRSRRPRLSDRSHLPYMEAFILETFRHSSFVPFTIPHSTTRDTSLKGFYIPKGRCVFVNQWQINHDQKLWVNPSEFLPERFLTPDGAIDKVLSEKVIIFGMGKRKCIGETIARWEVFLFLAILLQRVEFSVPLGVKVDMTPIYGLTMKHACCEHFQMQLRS

Cytochrome P450 1A2 = target: T3, Cytochrome P450 1A2 (Homo sapiens, UniProt P05177); test: Inhibition of CYP1A2 (unknown origin)
T3 sequence (P05177 whole entry): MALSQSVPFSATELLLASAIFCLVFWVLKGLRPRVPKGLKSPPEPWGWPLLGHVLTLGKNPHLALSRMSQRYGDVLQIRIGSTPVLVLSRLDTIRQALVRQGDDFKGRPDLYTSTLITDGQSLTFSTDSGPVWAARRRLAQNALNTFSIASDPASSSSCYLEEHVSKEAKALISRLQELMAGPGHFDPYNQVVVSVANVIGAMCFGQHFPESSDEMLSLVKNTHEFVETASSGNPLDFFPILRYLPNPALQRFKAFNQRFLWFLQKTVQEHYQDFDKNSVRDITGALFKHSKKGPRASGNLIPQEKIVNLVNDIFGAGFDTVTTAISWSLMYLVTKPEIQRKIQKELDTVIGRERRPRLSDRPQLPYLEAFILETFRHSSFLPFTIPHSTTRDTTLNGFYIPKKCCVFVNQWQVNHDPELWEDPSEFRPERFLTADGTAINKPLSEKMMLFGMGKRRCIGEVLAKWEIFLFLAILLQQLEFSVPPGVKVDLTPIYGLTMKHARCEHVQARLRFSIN

Measured: IC50

Oc1nc(-c2ccc(F)cc2)nc2ccccc12
> 1 µM: Cytochrome P450 1B1 | Cytochrome P450 1A1 | Cytochrome P450 1A2
